Experimental data taken from PMC5711494, “Sterol methyltransferase a target for anti-amoeba therapy: towards transition state analog and suicide substrate drug design” (Journal of Lipid Research, 2017).
Entries after “also recorded” stand apart in the source; their conditions may differ.

Tests used:
[1] = target: Ac28-SMT (sterol 28-methyltransferase, SMT2) (Acanthamoeba castellanii, UniProt L8GKC5); assay: Inhibition of recombinant Ac28-SMT assayed with native substrate 24(28)-methylene lophenol and [methyl-3H3]SAM; type: biochemical
Protocol: The SMT constructs were transformed into competent BL21(DE3) cells and transformants selected against 100 µg/ml ampicillin. Expression of the SMT constructs and partial purification of the recombinant proteins followed the procedure described previously ([19]). Briefly, a single colony for 24-SMT and 28-SMT were grown overnight in an orbital shaker (250–300 rpm) at 37°C in Luria broth containing ampicillin and then reinoculated in fresh medium at 1 in 10 dilution. […] In one tube, cells were induced by addition of isopropyl thio-galactoside at a final concentration of 1 mM and in the other tube, were un-induced. Cells were harvested 2 and 4 h after induction and an equal number of cells (as calculated by OD @600 nm) from induced (+) and un-induced (−) cultures were boiled with 1X Laemmli’s buffer and analyzed by SDS-PAGE (12%). […] Total protein concentrations were determined by Bradford dye-binding procedure with bovine γ-globulin as standard. […] Incubation mixtures were saponified with methanolic potassium hydroxide and extracted with hexane (3 × 1 ml) and concentrated to dryness providing the nonsaponifiable lipid fraction; radioactivity was determined by liquid scintillation counting. […] Controls containing radioactive SAM and no sterol used to background subtract radioactivity in these treatments was less than 500 dpm. […]

Ac24-SMT = assay: Substrate kinetics and product analysis with recombinant Ac24-SMT; type: biochemical, Acanthamoeba castellanii
Protocol: (§1) The SMT constructs were transformed into competent BL21(DE3) cells and transformants selected against 100 µg/ml ampicillin. Expression of the SMT constructs and partial purification of the recombinant proteins followed the procedure described previously ([19]). […] In one tube, cells were induced by addition of isopropyl thio-galactoside at a final concentration of 1 mM and in the other tube, were un-induced. Cells were harvested 2 and 4 h after induction and an equal number of cells (as calculated by OD @600 nm) from induced (+) and un-induced (−) cultures were boiled with 1X Laemmli’s buffer and analyzed by SDS-PAGE (12%). Gel was stained with Coomassie Brilliant Blue (0.2%) to establish the molecular weight and purity of the expressed protein. Total protein concentrations were determined by Bradford dye-binding procedure with bovine γ-globulin as standard. To determine the catalytic activity of the recombinant proteins, enzyme assays were carried out using soluble bacterial extract (100,000 g fraction) in 9 ml test tubes containing a total of 600 µl assay volume for 45 min (initial velocity conditions). The assay buffer contained 20 mM phosphate buffer in 5% (v/v) glycerol at pH 7.5, sterol acceptor emulsified in 12 µl Tween 80 (1.2 g/l), and the substrate tested over the concentration range 5 to 150 µM against 1.2 mg of total protein. The reaction was initiated by the addition of saturating levels of [methyl-^3H3]SAM, 0.9 µCi, at 150 µM. Incubation mixtures were saponified with methanolic potassium hydroxide and extracted with hexane (3 × 1 ml) and concentrated to dryness providing the nonsaponifiable lipid fraction; radioactivity was determined by liquid scintillation counting. […]

Ac28-SMT = assay: Substrate kinetics and product analysis with recombinant Ac28-SMT; type: biochemical, Acanthamoeba castellanii; conditions: incubated with SAM cosubstrate
Protocol: as §1

[2] = test system: Acanthamoeba castellanii trophozoites sterol biosynthesis; assay: Sterol composition of treated Ac trophozoites (GC/MS); type: cell-based; conditions: 15 µM, 24 h
Protocol: Amoeba and HEK cells were harvested at one or more points during growth in the presence and absence of steroidal inhibitor and azole at IC50 or MACs of the inhibitor or at 40 µM for HEK cells. Cell pellets were split with an internal standard of known amounts of 5α-cholestane added to one of the cell pellets for determination of sterol amounts in cells. Cells were saponified directly in aqueous methanolic potassium hydroxide at the reflux temperature for 1 h, which yielded total sterol (free plus sterol released from ester bonds). The resulting neutral lipids obtained by dilution with water and extraction with hexane (Fisher) were analyzed by GC/MS or HPLC-equipped with a diode array detector against cholesterol as a chromatographic reference. GC and HPLC retention times of sterols were compared with those obtained from authentic standards in our steroid collection ([18]–[22]). To determine the trophozoite sterol metabolome, GC/MS analysis of cell pellet nonsaponfiables was typically carried out using control cultures incubated in 5 ml medium in 25 ml T-flasks inoculated with 1 × 10^4 trophozoites/ml and cultured for 72 h. To generate significant cell pellets for sterol analysis of treated cells, trophozoites were cultured in 10 ml medium in 25 ml T-flasks inoculated with 1 × 10^5 cells/ml and grown for 48 h.

Ac28-SMT (sterol 28-methyltransferase, SMT2), sequence (L8GKC5 entry or part of it): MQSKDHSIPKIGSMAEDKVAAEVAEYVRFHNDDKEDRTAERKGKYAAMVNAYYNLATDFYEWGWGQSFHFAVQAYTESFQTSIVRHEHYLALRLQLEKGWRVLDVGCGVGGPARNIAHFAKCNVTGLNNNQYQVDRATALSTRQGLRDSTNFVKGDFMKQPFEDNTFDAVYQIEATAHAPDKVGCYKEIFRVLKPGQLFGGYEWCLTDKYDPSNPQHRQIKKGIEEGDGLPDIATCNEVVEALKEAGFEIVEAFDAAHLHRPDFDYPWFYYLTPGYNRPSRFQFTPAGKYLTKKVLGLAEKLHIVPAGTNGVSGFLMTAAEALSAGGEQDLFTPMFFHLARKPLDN

For `CC(CCC=C1CC1)C1CC[C@@]2(C)C3=C(CCC12C)C1(C)CCC(O)C(C)(C)C1CC3` (some centres unmarked) [DHL, 26,27-dehydrolanosterol], the “kinact/Ki against 28-SMT” value [1] was “effectively zero”, the Ki ([1]; read-out: Ki against 28-SMT (competitive inhibitor), assayed with natural substrate) was 54 µM and the “difference in catalytic competence (kcat/Km) from the natural substrate of 24-SMT” value (Ac24-SMT) was “greater than 10 fold”. For the same compound, the “conversion by Ac24-SMT to product P1 (C26-monol)” value (Ac24-SMT; GC/MS, saturating cosubstrates) was 3%, the “conversion by Ac24-SMT to product P2 (C26-diol)” value (Ac24-SMT; GC/MS, saturating cosubstrates) was 1% and the “Km (Michaelis / binding constant) as substrate of Ac24-SMT” value (Ac24-SMT; saturating SAM 150 µM, initial velocity conditions) was ~33 µM. The “activity / methyl product formation as substrate of Ac28-SMT” value (Ac28-SMT) was “not productively bound; also recorded: no activity was observed; also recorded: no methyl products were detected” and the “effect on sterol composition” value [2] was “minimal effect”.
